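Tested at 5 concentrations; 48 h exposure; 96-well plates; endpoints linearly interpolated, else capped at highest concentration. Abbreviation: GI50, concentration required for 50% inhibition of growth.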 Activity calls are given as the source filed them. Cut-off read from the data, not from the text of the source: active = GI50 up to about 1.1 µM and inactive = higher.
Tests used:
Test in all cases: NCI-60 cell line screen, 48 h
786-0 = test system: 786-0
A498 = test system: A498
A549 = test system: A549
ACHN = test system: ACHN
CAKI-1 = test system: CAKI-1
DMS-114 = test system: DMS-114
DMS-273 = test system: DMS-273
EKVX = test system: EKVX
HCC 2998 = test system: HCC 2998
HCT-116 = test system: HCT-116
HCT-15 = test system: HCT-15
HL-60 = test system: HL-60
HOP-62 = test system: HOP-62
HT-29 = test system: HT-29
IGROV-1 = test system: IGROV-1
K562 = test system: K562
KM-20L2 = test system: KM-20L2
KM12 = test system: KM12
LOX IMVI = test system: LOX IMVI
LXFL 529 = test system: LXFL 529
M14 = test system: M14
M19-MEL = test system: M19-MEL
MOLT-4 = test system: MOLT-4
Malme-3M = test system: Malme-3M
NCI-H226 = test system: NCI-H226
NCI-H460 = test system: NCI-H460
NCI-H522 = test system: NCI-H522
OVCAR-3 = test system: OVCAR-3
OVCAR-4 = test system: OVCAR-4
OVCAR-5 = test system: OVCAR-5
OVCAR-8 = test system: OVCAR-8
RPMI-8226 = test system: RPMI-8226
SF-268 = test system: SF-268
SF-295 = test system: SF-295
SF-539 = test system: SF-539
SK-MEL-28 = test system: SK-MEL-28
SK-MEL-2 = test system: SK-MEL-2
SK-MEL-5 = test system: SK-MEL-5
SK-OV-3 = test system: SK-OV-3
SN12C = test system: SN12C
SNB-19 = test system: SNB-19
SNB-75 = test system: SNB-75
SR = test system: SR
SW-620 = test system: SW-620
U-251 = test system: U-251
UACC-257 = test system: UACC-257
UACC-62 = test system: UACC-62
UO-31 = test system: UO-31
XF498 = test system: XF498
CCRF-CEM = test system: CCRF-CEM
COLO 205 = test system: COLO 205
DLD-1 = test system: DLD-1
HOP-18 = test system: HOP-18
HOP-92 = test system: HOP-92
NCI-H23 = test system: NCI-H23
RXF 393 = test system: RXF 393
TK-10 = test system: TK-10

With `CS(=O)(=O)N(CCC#N)c1ccc(C=O)cc1` the GI50 (786-0) was > 100 µM (inactive), the GI50 (A498) was > 100 µM (inactive) and the GI50 (A549) was > 100 µM (inactive). The GI50 (ACHN) was > 100 µM (inactive), the GI50 (CAKI-1) was > 100 µM (inactive) and the GI50 (DMS-114) was > 100 µM (inactive). For the same molecule, the GI50 (DMS-273) was > 100 µM (inactive), the GI50 (EKVX) was > 100 µM (inactive) and the GI50 (HCC 2998) was > 100 µM (inactive). The GI50 (HCT-116) was > 100 µM (inactive), the GI50 (HCT-15) was over 100 µM and the GI50 (HL-60) was > 100 µM (inactive). The GI50 (HOP-62) was 97.9 µM (inactive), the GI50 (HT-29) was > 100 µM (inactive) and the GI50 (IGROV-1) was > 100 µM (inactive). The GI50 (K562) was > 100 µM (inactive), the GI50 (KM-20L2) was > 100 µM (inactive) and the GI50 (KM12) was > 100 µM (inactive). The GI50 (LOX IMVI) was > 100 µM (inactive), the GI50 (LXFL 529) was > 100 µM (inactive) and the GI50 (M14) was > 100 µM (inactive). For the same molecule, the GI50 (M19-MEL) was > 100 µM (inactive), the GI50 (MOLT-4) was 92.7 µM (inactive) and the GI50 (Malme-3M) was > 100 µM (inactive). For the same molecule, the GI50 (NCI-H226) was > 100 µM (inactive), the GI50 (NCI-H460) was > 100 µM (inactive) and the GI50 (NCI-H522) was > 100 µM (inactive). The GI50 (OVCAR-3) was > 100 µM (inactive), the GI50 (OVCAR-4) was > 100 µM (inactive) and the GI50 (OVCAR-5) was > 100 µM (inactive). For the same molecule, the GI50 (OVCAR-8) was > 100 µM (inactive), the GI50 (RPMI-8226) was > 100 µM (inactive) and the GI50 (SF-268) was > 100 µM (inactive). The GI50 (SF-295) was > 100 µM (inactive), the GI50 (SF-539) was > 100 µM (inactive) and the GI50 (SK-MEL-28) was > 100 µM (inactive). For the same molecule, the GI50 (SK-MEL-2) was > 100 µM (inactive), the GI50 (SK-MEL-5) was > 100 µM (inactive) and the GI50 (SK-OV-3) was > 100 µM (inactive). For the same molecule, the GI50 (SN12C) was > 100 µM (inactive), the GI50 (SNB-19) was > 100 µM (inactive) and the GI50 (SNB-75) was > 100 µM (inactive). For the same molecule, the GI50 (SR) was > 100 µM (inactive), the GI50 (SW-620) was > 100 µM (inactive) and the GI50 (U-251) was > 100 µM (inactive). For the same molecule, the GI50 (UACC-257) was > 100 µM (inactive), the GI50 (UACC-62) was > 100 µM (inactive) and the GI50 (UO-31) was > 100 µM (inactive). For the same molecule, the GI50 (XF498) was > 100 µM (inactive).
For `COc1cc2ccc3c4cc(OC)c(OC(C)C)cc4c[n+](C)c3c2cc1OC`, the GI50 (786-0) was 99.3 µM (inactive), the GI50 (A549) was > 100 µM (inactive) and the GI50 (ACHN) was > 100 µM (inactive). For the same molecule, the GI50 (CAKI-1) was > 100 µM (inactive), the GI50 (CCRF-CEM) was 49.1 µM (inactive) and the GI50 (COLO 205) was 14.5 µM (inactive). The GI50 (DLD-1) was > 100 µM (inactive), the GI50 (DMS-114) was 9.64 µM (inactive) and the GI50 (EKVX) was > 100 µM (inactive). The GI50 (HCC 2998) was 44.5 µM (inactive), the GI50 (HCT-116) was > 100 µM (inactive) and the GI50 (HCT-15) was over 100 µM. The GI50 (HL-60) was 35.1 µM (inactive), the GI50 (HOP-18) was 23.4 µM (inactive) and the GI50 (HOP-62) was > 100 µM (inactive). The GI50 (HOP-92) was 36.7 µM (inactive), the GI50 (HT-29) was > 100 µM (inactive) and the GI50 (IGROV-1) was 74.5 µM (inactive). For the same molecule, the GI50 (K562) was 22.7 µM (inactive), the GI50 (KM-20L2) was > 100 µM (inactive) and the GI50 (KM12) was > 100 µM (inactive). For the same molecule, the GI50 (LOX IMVI) was 54.3 µM (inactive), the GI50 (LXFL 529) was 14.2 µM (inactive) and the GI50 (M14) was 64.6 µM (inactive). The GI50 (M19-MEL) was 29 µM (inactive), the GI50 (MOLT-4) was > 100 µM (inactive) and the GI50 (Malme-3M) was 48.9 µM (inactive). For the same molecule, the GI50 (NCI-H226) was 71.3 µM (inactive), the GI50 (NCI-H23) was 95.7 µM (inactive) and the GI50 (NCI-H460) was > 100 µM (inactive). For the same molecule, the GI50 (NCI-H522) was 17.4 µM (inactive), the GI50 (OVCAR-3) was 19.7 µM (inactive) and the GI50 (OVCAR-4) was 64 µM (inactive). The GI50 (OVCAR-5) was > 100 µM (inactive), the GI50 (OVCAR-8) was 39.2 µM (inactive) and the GI50 (RPMI-8226) was > 100 µM (inactive). For the same molecule, the GI50 (RXF 393) was 27.7 µM (inactive), the GI50 (SF-268) was 32.7 µM (inactive) and the GI50 (SF-295) was > 100 µM (inactive). For the same molecule, the GI50 (SF-539) was 40.4 µM (inactive), the GI50 (SK-MEL-28) was 33.6 µM (inactive) and the GI50 (SK-MEL-2) was 30.8 µM (inactive). The GI50 (SK-MEL-5) was 42 µM (inactive), the GI50 (SK-OV-3) was > 100 µM (inactive) and the GI50 (SN12C) was 31.5 µM (inactive). The GI50 (SNB-19) was > 100 µM (inactive), the GI50 (SNB-75) was 34 µM (inactive) and the GI50 (SR) was 47.8 µM (inactive). For the same molecule, the GI50 (SW-620) was 71.6 µM (inactive), the GI50 (TK-10) was > 100 µM (inactive) and the GI50 (U-251) was 31.3 µM (inactive). For the same molecule, the GI50 (UACC-257) was 28.2 µM (inactive), the GI50 (UACC-62) was 55.2 µM (inactive) and the GI50 (UO-31) was > 100 µM (inactive).

From ChEMBL document CHEMBL1201862, “PubChem BioAssay data set” (2004)
